In patent US9676773B2, “Azaindole derivative” (TAIHO PHARMACEUTICAL CO., LTD., priority 2014, dated 2017):
Values belong to the compound of their own block, whether it stands above or below them.

Columns and labels:
[1] = target: T1, purified recombinant human JAK1 protein (Homo sapiens, UniProt P23458); assay: Measurement of JAK1 kinase-inhibitory activity; assay type: biochemical; settings: substrate peptide 1 μM, ATP 75 M (so in the source), 25° C., 120 minutes
T1 construct: purchased Carna Biosciences, Inc
Protocol: 1) Measurement of JAK1 Kinase-Inhibitory Activity
The activity of the compound of the present invention to inhibit the activity of JAK1 kinase was measured.
(§1) Among materials for the measurement of this inhibitory activity, a substrate peptide and a kinase protein were acquired as follows. As such a substrate peptide, a substrate peptide for QSS Assist™ JAK1-MSA assay kit (Carna Biosciences, Inc.) was purchased. As such a kinase protein, a purified recombinant human JAK1 protein (Carna Biosciences, Inc.) was purchased.
The method for measuring the inhibitory activity is as follows. First, the compounds of the present invention were each dissolved in dimethyl sulfoxide (DMSO), and a serial dilution was then prepared by the use of DMSO. Subsequently, a serial dilution solution of the compound (the final concentration of DMSO upon a kinase reaction: 5.0%) or DMSO (final concentration: 5.0%) was mixed with a solution containing the substrate peptide (final concentration: 1 μM), magnesium chloride (final concentration: 5 mM) and ATP (final concentration: 75 µM) in a buffer for kinase reaction (20 mM HEPES (pH 7.5), 2 mM dithiothreitol and 0.01% Triton X-100). Thereafter, a JAK1 protein was further added to the mixed solution, and the obtained mixture was then incubated at 25° C. for 120 minutes to carry out a kinase reaction. To the reaction solution, EDTA was added to a final concentration of 30 mM, so as to terminate the reaction. Finally, with LabChip EZ Reader II (Perkin Elmer Corp.), an unphosphorylated substrate peptide (S) and a phosphorylated peptide (P) were subjected to microchannel capillary electrophoresis, so that the two peptides were separated from each other and were then detected. The amount of a phosphorylation reaction was obtained based on the heights of the peaks of S and P, and the concentration of the compound capable of inhibiting 50% of the phosphorylation reaction was defined as an IC50 value (nM).

[2] = target: T2, purified recombinant human JAK2 protein (Homo sapiens, UniProt O60674); assay: Measurement of JAK2 kinase-inhibitory activity; assay type: biochemical; settings: FL-Peptide 22 1 μM, ATP 10 μM, 25° C., 80 minutes
T2 construct: purchased Carna Biosciences, Inc
Protocol: 2) Measurement of JAK2 Kinase-Inhibitory Activity
The activity of the compound of the present invention to inhibit the activity of JAK2 kinase was measured.
as §1, with “FL-Peptide 22 (Perkin Elmer Corp.)” for “a substrate peptide for QSS Assist™ JAK1-MSA assay kit (Carna Biosciences, Inc.)”, “JAK2” for “JAK1”
The method for measuring the inhibitory activity is as follows. First, a serial dilution of the compound of the present invention was prepared by the same method as that described in the above section regarding JAK1. This serial dilution solution (the final concentration of DMSO upon a kinase reaction: 5.0%) or DMSO (final concentration: 5.0%) was mixed with a solution containing the substrate peptide (final concentration: 1 μM), magnesium chloride (final concentration: 10 mM) and ATP (final concentration: 10 μM) in a buffer for kinase reaction (15 mM Tris (pH 7.5), 2 mM dithiothreitol and 0.01% Tween 20). Thereafter, a JAK2 protein was further added to the mixed solution, and the obtained mixture was then incubated at 25° C. for 80 minutes to carry out a kinase reaction. To the reaction solution, EDTA was added to a final concentration of 30 mM, so as to terminate the reaction. After termination of the reaction, the measurement and the data analysis were carried out by the same methods as those described in the above section regarding JAK1.

T2 sequence (O60674 whole entry): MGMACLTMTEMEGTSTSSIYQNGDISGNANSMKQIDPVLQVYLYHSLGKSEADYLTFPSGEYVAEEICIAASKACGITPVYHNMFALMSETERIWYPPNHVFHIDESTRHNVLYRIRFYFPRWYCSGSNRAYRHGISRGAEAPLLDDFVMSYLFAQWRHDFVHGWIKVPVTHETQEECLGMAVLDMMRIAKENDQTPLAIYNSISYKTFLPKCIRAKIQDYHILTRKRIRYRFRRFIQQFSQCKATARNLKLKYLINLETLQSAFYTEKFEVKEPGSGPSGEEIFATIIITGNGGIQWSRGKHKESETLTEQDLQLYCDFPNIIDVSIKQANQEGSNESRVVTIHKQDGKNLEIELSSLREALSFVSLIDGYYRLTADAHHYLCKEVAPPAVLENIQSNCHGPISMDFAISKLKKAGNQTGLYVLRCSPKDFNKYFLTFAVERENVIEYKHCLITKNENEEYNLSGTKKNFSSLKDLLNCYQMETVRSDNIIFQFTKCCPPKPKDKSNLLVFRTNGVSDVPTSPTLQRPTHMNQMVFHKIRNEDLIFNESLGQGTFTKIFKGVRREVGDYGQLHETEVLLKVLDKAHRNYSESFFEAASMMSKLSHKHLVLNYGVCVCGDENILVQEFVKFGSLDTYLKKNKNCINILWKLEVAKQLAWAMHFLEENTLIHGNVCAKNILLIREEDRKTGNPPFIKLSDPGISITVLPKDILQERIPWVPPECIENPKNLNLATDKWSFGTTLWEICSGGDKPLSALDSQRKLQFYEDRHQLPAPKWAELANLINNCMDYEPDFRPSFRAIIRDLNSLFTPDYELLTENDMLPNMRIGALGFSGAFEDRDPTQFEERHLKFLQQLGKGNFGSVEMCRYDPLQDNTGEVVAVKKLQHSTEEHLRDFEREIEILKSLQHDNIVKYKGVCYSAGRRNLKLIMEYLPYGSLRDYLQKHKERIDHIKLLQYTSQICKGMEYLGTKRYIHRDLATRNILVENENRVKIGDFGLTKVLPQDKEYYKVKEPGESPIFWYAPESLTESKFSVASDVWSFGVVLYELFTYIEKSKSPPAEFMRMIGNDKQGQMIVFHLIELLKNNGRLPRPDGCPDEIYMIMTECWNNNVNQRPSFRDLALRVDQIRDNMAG
T1 sequence (P23458 whole entry): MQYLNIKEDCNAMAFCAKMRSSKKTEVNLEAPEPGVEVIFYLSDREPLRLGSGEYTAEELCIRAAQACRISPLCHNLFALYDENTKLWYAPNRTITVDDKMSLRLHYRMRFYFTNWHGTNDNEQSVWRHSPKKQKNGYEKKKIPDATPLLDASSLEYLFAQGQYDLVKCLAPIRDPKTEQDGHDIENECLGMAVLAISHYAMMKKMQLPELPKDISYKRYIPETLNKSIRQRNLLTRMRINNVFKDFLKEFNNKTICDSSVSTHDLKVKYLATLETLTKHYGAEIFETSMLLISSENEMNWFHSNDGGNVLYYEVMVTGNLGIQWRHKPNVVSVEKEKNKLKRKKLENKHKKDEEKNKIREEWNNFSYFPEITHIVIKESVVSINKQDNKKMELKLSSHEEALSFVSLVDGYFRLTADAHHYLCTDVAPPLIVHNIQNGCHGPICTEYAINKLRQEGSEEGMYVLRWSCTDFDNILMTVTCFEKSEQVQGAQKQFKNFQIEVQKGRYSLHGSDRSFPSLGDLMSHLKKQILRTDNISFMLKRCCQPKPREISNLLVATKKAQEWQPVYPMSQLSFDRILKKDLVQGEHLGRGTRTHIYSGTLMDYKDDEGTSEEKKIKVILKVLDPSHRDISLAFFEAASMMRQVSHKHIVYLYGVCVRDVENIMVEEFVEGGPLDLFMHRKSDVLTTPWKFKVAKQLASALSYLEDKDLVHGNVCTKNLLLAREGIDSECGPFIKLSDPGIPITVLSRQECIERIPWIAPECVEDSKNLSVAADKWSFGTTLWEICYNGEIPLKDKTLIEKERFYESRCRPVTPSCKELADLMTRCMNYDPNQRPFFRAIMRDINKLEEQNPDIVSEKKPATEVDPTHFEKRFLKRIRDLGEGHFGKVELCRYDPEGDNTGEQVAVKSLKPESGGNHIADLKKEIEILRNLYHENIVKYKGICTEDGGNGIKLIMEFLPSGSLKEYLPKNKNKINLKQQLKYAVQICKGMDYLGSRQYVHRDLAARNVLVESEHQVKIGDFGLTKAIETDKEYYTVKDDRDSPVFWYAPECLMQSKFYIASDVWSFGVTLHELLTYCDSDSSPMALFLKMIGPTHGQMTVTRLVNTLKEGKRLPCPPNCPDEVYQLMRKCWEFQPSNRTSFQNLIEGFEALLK

SMILES: C=CC(=O)NC1CCC=C(c2ccnc3[nH]cc(-c4ccccc4)c23)C1 (stereo not drawn) [Compound 1, N-(3-(3-Phenyl-1H-pyrrolo[2,3-b]pyridin-4-yl)cyclohex-3-en-1-yl)acrylamide]
IC50 [1]: 740 nM
IC50 [2]: 450 nM

SMILES: C=CC(=O)NC1CCC=C(c2ccnc3[nH]cc(-c4nn(C)c(=O)o4)c23)C1 (stereo not drawn) [Compound 53, N-(3-(3-(4-Methyl-5-oxo-4,5-dihydro-1,3,4-oxadiazol-2-yl)-1H-pyrrolo[2,3-b]pyridin-4-yl)cyclohex-3-en-1-yl)acrylamide]
IC50 [1]: 3900 nM
IC50 [2]: 990 nM

SMILES: C=CC(=O)NC1CC=C(c2ccnc3[nH]cc(-c4nnco4)c23)C1 (stereo not drawn) [Compound 57, N-(3-(3-(1,3,4-Oxadiazol-2-yl)-1H-pyrrolo[2,3-b]pyridin-4-yl)cyclopent-3-en-1-yl)acrylamide]
IC50 [1]: 3500 nM
IC50 [2]: 880 nM

SMILES: C=CC(=O)N[C@H]1CCC=C(c2ccnc3[nH]cc(-c4nnco4)c23)C1 [Compound 55, (S)—N-(3-(3-(1,3,4-Oxadiazol-2-yl)-1H-pyrrolo[2,3-b]pyridin-4-yl)cyclohex-3-en-1-yl)acrylamide]
IC50 [1]: 1000 nM
IC50 [2]: 260 nM

SMILES: C1=C(c2ccnc3[nH]ccc23)CCCC1 [Comparative Example 1, reference compound]
IC50 [1]: 1200 nM
IC50 [2]: 450 nM

SMILES: Cc1nc(-c2c[nH]c3ncc(-c4ccccc4)cc23)cs1 [Comparative Example 3, 2-Methyl-4-(5-phenyl-1H-pyrrolo[2,3-b]pyridin-3-yl)thiazole, reference compound]
IC50 [1]: 2900 nM
IC50 [2]: 1600 nM

SMILES: C=CC(=O)NC1CCC=C(c2ccnc3[nH]cc(-c4cn[nH]c4)c23)C1 (stereo not drawn) [Compound 3, N-(3-(3-(1H-Pyrazol-4-yl)-1H-pyrrolo[2,3-b]pyridin-4-yl)cyclohex-3-en-1-yl)acrylamide]
IC50 [1]: 1900 nM
IC50 [2]: 570 nM

SMILES: C=CC(=O)NC1CCC=C(c2ccnc3[nH]cc(-c4cccnc4OC)c23)C1 (stereo not drawn) [Compound 6, N-(3-(3-(2-Methoxypyridin-3-yl)-1H-pyrrolo[2,3-b]pyridin-4-yl)cyclohex-3-en-1-yl)acrylamide]
IC50 [1]: 1100 nM
IC50 [2]: 600 nM

SMILES: C=CC(=O)NC1CCC=C(c2ccnc3[nH]cc(-c4nncs4)c23)C1 (stereo not drawn) [Compound 54]
IC50 [1]: 6900 nM
IC50 [2]: 2100 nM

SMILES: C=CC(=O)NC1CCC=C(c2ccnc3[nH]cc(-c4ccc(F)nc4)c23)C1 (stereo not drawn) [Compound 37, N-(3-(3-(6-Fluoropyridin-3-yl)-1H-pyrrolo[2,3-b]pyridin-4-yl)cyclohex-3-en-1-yl)acrylamide]
IC50 [1]: 4400 nM
IC50 [2]: 2400 nM

SMILES: C=CC(=O)NC1CCC=C(c2ccnc3[nH]cc(C4=CCOC4)c23)C1 (stereo not drawn) [Compound 34, N-(3-(3-(2,5-Dihydrofuran-3-yl)-1H-pyrrolo[2,3-b]pyridin-4-yl)cyclohex-3-en-1-yl)acrylamide]
IC50 [1]: 2400 nM
IC50 [2]: 970 nM

SMILES: C1=C(c2ccnc3[nH]ccc23)CCC1 [Comparative Example 2, 4-(Cyclopent-1-en-1-yl)-1H-pyrrolo[2,3-b]pyridine, reference compound]
IC50 [1]: 2200 nM
IC50 [2]: 540 nM

Results, then the compound that gave them:

IC50 [1]: 780 nM
IC50 [2]: 500 nM
SMILES: C=CC(=O)NC1CCC=C(c2ccnc3[nH]cc(-c4ccco4)c23)C1 (stereo not drawn) [Compound 12, N-(3-(3-(Furan-2-yl)-1H-pyrrolo[2,3-b]pyridin-4-yl)cyclohex-3-en-1-yl)acrylamide]

IC50 [1]: 2400 nM
IC50 [2]: 710 nM
SMILES: C=CC(=O)NC1CCC=C(c2ccnc3[nH]cc(-c4cnco4)c23)C1 (stereo not drawn) [Compound 48, N-(3-(3-(Oxazol-5-yl)-1H-pyrrolo[2,3-b]pyridin-4-yl)cyclohex-3-en-1-yl)acrylamide]

IC50 [1]: 1500 nM
IC50 [2]: 430 nM
SMILES: C=CC(=O)N[C@H]1CCC=C(c2ccnc3[nH]cc(-c4ccno4)c23)C1 [Compound 59]

IC50 [1]: 3400 nM
IC50 [2]: 980 nM
SMILES: C=CC(=O)NC1CCC=C(c2ccnc3[nH]cc(-c4nnco4)c23)C1 (stereo not drawn) [Compound 49, N-(3-(3-(1,3,4-Oxadiazol-2-yl)-1H-pyrrolo[2,3-b]pyridin-4-yl)cyclohex-3-en-1-yl)acrylamide]

IC50 [1]: 3200 nM
IC50 [2]: 590 nM
SMILES: C=CC(=O)NC1CCC=C(c2ccnc3[nH]cc(-c4cc(CO)co4)c23)C1 (stereo not drawn) [Compound 14, N-(3-(3-(4-(Hydroxymethyl)furan-2-yl)-1H-pyrrolo[2,3-b]pyridin-4-yl)cyclohex-3-en-1-yl)acrylamide]

IC50 [1]: 1900 nM
IC50 [2]: 250 nM
SMILES: C=CC(=O)NC1CCC=C(c2ccnc3[nH]cc(-c4ccc(CO)o4)c23)C1 (stereo not drawn) [Compound 10, N-(3-(3-(5-(Hydroxymethyl)furan-2-yl)-1H-pyrrolo[2,3-b]pyridin-4-yl)cyclohex-3-en-1-yl)acrylamide]
